Data reported in PubChem BioAssay (NCI).
Several values for one entry are separate records, joined by “and”; a condition that tells them apart may be missing. Equal entries are not always repeated.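 Five concentrations, 48 hours, 96-well plates. GI50 marks 50% less growth. TGI denotes the concentration required for complete inhibition of growth.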

Key:
Assay in all cases: NCI tumour cell line growth inhibition, 48 h
OVCAR-5 ovarian = test system: OVCAR-5 ovarian
HCC-2998 colon = test system: HCC-2998 colon
K-562 leukemia = test system: K-562 leukemia
U251 CNS = test system: U251 CNS
COLO 205 colon = test system: COLO 205 colon
LOX IMVI melanoma = test system: LOX IMVI melanoma
IGROV1 ovarian = test system: IGROV1 ovarian
NCI-H522 lung = test system: NCI-H522 lung
PC-3 prostate = test system: PC-3 prostate
DU-145 prostate = test system: DU-145 prostate

SMILES | TGI (OVCAR-5 ovarian) [µM] | TGI (HCC-2998 colon) [µM] | TGI (K-562 leukemia) [µM] | TGI (U251 CNS) [µM] | TGI (COLO 205 colon) [µM] | TGI (LOX IMVI melanoma) [µM] | TGI (IGROV1 ovarian) [µM] | TGI (NCI-H522 lung) [µM] | GI50 (PC-3 prostate) [µM] | TGI (PC-3 prostate) [µM] | GI50 (U251 CNS) [µM] | GI50 (LOX IMVI melanoma) [µM] | GI50 (DU-145 prostate) [µM] | TGI (DU-145 prostate) [µM] | GI50 (IGROV1 ovarian) | GI50 (NCI-H522 lung) [µM] | GI50 (OVCAR-5 ovarian) [µM] | GI50 (K-562 leukemia) [µM] | GI50 (COLO 205 colon) [µM] | GI50 (HCC-2998 colon) [µM]
CC(=O)N1CCN(C=S)CC1 | > 100 | > 100 | > 100 | > 100 | > 100 | > 100 | > 100 | > 100 | – | – | – | – | – | – | – | – | – | – | – | –
CCC12C=CCN3CCC4(C(=C(C(=O)OC)C1)Nc1ccccc14)[C@H]32 (stereo not given in full) | > 100 | > 100 | 52.5 | – | 32.3 | 53.4 | > 100 | 49.4 | – | – | – | – | – | – | – | – | – | – | – | –
N#CC1([N+](=O)[O-])C=C1c1ccccc1 (stereo not given) | > 100 | – | 71.5 | > 100 | > 100 | > 100 | > 100 | 56.6 | – | – | – | – | – | – | – | – | – | – | – | –
COC(=O)C(C(=O)C(=O)Nc1ccc(N)cc1[N+](=O)[O-])c1nc2ccc(Cl)cc2[nH]c1=O (stereo not given) | > 100 | > 100 | > 100 | – | > 100 | > 100 | > 100 | – | – | – | – | – | – | – | – | – | – | – | – | –
N#CCCn1c(CCC(=O)Nc2ccc(Cl)cc2Cl)n[nH]c1=S | > 100 | > 100 | > 100 | > 100 | > 100 | > 100 | > 100 | > 100 | – | – | – | – | – | – | – | – | – | – | – | –
NC(=S)N=Nc1c(O)[nH]c2ccccc12 | – | – | > 1000 | 404 | > 1000 | > 1000 | 477 | 343 | 172 | 392 | 188 | 226 | 126 | 284 | 66.7 µM and 162 µM | 159 | – | – | – | –
CCCCCCC(=O)CC(=O)C(=O)Nc1ccccc1C | > 100 | > 100 | > 100 | > 100 | > 100 | > 59 | > 100 | > 100 | – | – | – | – | – | – | – | – | – | – | – | –
Nc1nc(Cl)c2ncn(Cc3ccc(-c4ccc(CCl)cc4)cc3)c2n1 | > 100 | – | > 100 | – | 74.4 | – | > 100 | > 100 | 9.08 | > 100 | – | – | 12.6 | 25.6 | 12.5 µM | > 100 | 20.8 | 13.9 | 7.17 | –
N#CC1C(=O)NC(=O)C(C#N)C1c1ccc(Cl)c(Cl)c1 (stereo not given) | 68.6 | – | 85.8 | 51.5 | > 100 | 34.4 | 47.3 | 38 | – | > 100 | – | – | – | > 100 | – | – | – | – | – | –
O=C1OC(=O)C2C1C1C(c3ccccc3)=C(c3ccccc3)C2(O)C2C(=O)OC(=O)C12 (stereo not given) | > 100 | > 100 | > 100 | > 100 | > 100 | – | > 100 | > 100 | – | – | – | – | – | – | – | – | – | – | – | –
CC(=O)Nc1cc(CN2CCCCC2)c(O)c2ncccc12 | > 100 | – | > 100 | 42 | > 100 | 84.8 | > 100 | > 100 | – | 81 | – | – | – | 75.7 | – | – | – | – | – | –
C/C(=N\NS(=O)(=O)c1ccccc1)c1ccc[n+]([O-])n1 | > 100 | > 100 | > 100 | > 100 | – | – | > 100 | 79 | – | – | – | – | – | – | – | – | – | – | – | –
O=S1(=O)C=C(c2ccccc2)C(c2ccccc2)=C1 | 3.14 | 3.16 | > 100 | 2.88 | 3.61 | 3.05 | – | – | 1.79 | 4.52 | 1.54 | 1.69 | 1.64 | 3 | – | – | 1.69 | 1.83 | 1.77 | 1.71
Nc1nc(N)c(-c2ccc(Cl)cc2)c(/C=C/c2ccc([N+](=O)[O-])cc2)n1 | > 100 | – | > 100 | 23.8 | > 100 | > 100 | 52.9 | 41.9 | 3.9 | > 100 | 3.99 | 4.52 | 6.66 | > 100 | 5.35 µM | 13.2 | 38.2 | 3.16 | 6.01 | –
N#CC(CC(=O)O)=C(c1ccccc1)c1ccccc1 | > 100 | > 100 | > 100 | > 100 | > 100 | > 100 | > 100 | > 100 | – | > 100 | – | – | – | – | – | – | – | – | – | –
C[C@H](CCCOS(C)(=O)=O)[C@H]1CC[C@H]2[C@@H]3CC[C@@H]4C[C@H](OS(C)(=O)=O)CC[C@]4(C)[C@H]3CC[C@]12C | > 2500 | – | – | – | > 2500 | 1270 | 1450 | 961 | 852 | – | 356 | 483 | 1160 | – | 518 µM | 398 | 391 | – | 1130 | –
CN(C)c1ccc(/C=c2\sc3nnc(Cc4ccccc4)n3c2=O)cc1 | > 100 | > 100 | > 100 | > 100 | > 10 | > 10 | > 100 | > 100 | – | – | > 100 | – | – | – | > 100 µM | > 100 | > 100 | > 100 | – | –
C=C1CC(CC(=O)C(C)CC2CC(=C)C(=O)O2)OC1=O (stereo not given) | > 100 | > 100 | 89.6 | > 100 | 27.1 | 29.2 | > 100 | – | – | – | – | – | – | – | – | – | – | – | – | –
C[C@H](c1ccc(Cl)cc1[N+](=O)[O-])N1C(=O)c2cc(I)ccc2NC(=O)[C@H]1c1ccc(Cl)cc1 | > 100 | – | > 100 | > 100 | > 100 | > 100 | > 100 | > 100 | 4.86 | > 100 | > 100 | > 100 | > 100 | > 100 | 8.21 µM | 8.94 | > 100 | 77 | > 100 | –
CCc1cccc(CC)c1NC(=O)C1=CNC(C)=C(C(=O)Nc2c(CC)cccc2CC)C1c1ccc(O)c(OC)c1 (stereo not given) | > 100 | 88.8 | 99.5 | > 100 | > 100 | > 100 | > 100 | 77.4 | – | – | – | – | – | – | – | – | – | – | – | –
